This note sets out measurements from paper PMC9496321, “6-Furopyridine Hexamethylene Amiloride Is a Non-Selective P2X7 Receptor Antagonist” (Biomolecules, 2022).

As usually defined, the IC50 is the concentration that gives 50% inhibition. As a reminder, the EC50 is the concentration that produces a half-maximal response. A lower EC50 goes with higher potency in that assay.

The target in one test is T1, cP2X7 (Canis lupus familiaris, UniProt B0FLR1).
T1 sequence (B0FLR1 1-595): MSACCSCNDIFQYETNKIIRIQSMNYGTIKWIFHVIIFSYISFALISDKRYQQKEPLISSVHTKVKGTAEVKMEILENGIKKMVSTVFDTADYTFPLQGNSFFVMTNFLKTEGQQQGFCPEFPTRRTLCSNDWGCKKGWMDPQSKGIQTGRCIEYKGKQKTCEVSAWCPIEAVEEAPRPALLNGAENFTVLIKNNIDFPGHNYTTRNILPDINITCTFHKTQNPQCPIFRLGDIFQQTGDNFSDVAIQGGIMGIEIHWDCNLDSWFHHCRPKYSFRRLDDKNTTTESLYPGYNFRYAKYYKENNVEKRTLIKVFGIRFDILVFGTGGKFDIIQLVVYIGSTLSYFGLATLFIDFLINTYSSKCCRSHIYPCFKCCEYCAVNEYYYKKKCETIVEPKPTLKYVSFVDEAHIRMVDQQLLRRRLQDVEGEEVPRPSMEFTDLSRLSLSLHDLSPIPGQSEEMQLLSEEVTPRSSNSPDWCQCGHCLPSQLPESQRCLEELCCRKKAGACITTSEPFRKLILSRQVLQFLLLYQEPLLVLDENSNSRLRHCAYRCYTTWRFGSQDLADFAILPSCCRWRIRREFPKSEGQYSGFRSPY
Nature of the test: ATP-induced ethidium+ uptake in transfected HEK-cP2X7 cells. Type of test: cell-based, canine. As for the experimental part:
(§1) HEK293 cells were plated at 3.5 × 10^5 cells/well in 2 mL of complete DMEM/F12 medium and incubated (37 °C, 95% air/5% CO2, overnight). Cells were transfected with mP2X7-GFP (HEK-mP2X7), cP2X7-GFP (HEK-cP2X7) or hP2X4-EmGFP (HEK-hP2X4) plasmids, or mock transfected with an equivalent volume of sterile Milli-Q water (Merck Millipore, Burlington, NJ, USA), using Lipofectamine 3000 according to the manufacturer’s instructions. Cells were used for assays 48 h post-transfection. To determine transfection efficiency, cells were washed twice with D-PBS and data collected with an LSR Fortessa X-20 flow cytometer (BD Biosciences). The proportion of GFP positive cells was determined using FlowJo software v8.7.1 (BD Biosciences).
(§2) ATP-mediated uptake assays were conducted as described with either ethidium bromide or YO-PRO-1 iodide. Briefly, RPMI8226, HEK-hP2X7, HEK-mP2X7, HEK-cP2X7 or cryopreserved human peripheral blood mononuclear cells (PBMCs) were washed thrice with LDM (300× g, 5 min), resuspended in LDM and 1 × 10^6 cells were added to individual tubes. Cells were pre-incubated in the absence of compound (37 °C, 5 min) or in the presence of compound or vehicle (DMSO) (37 °C, 15 min) as indicated. […] An equal volume of ice-cold Mg^2+ stop solution was added and cells centrifuged (300× g, 5 min). Cells were washed twice in LDM (300× g, 5 min), resuspended and data were collected with an LSR Fortessa X-20 flow cytometer. MFI of ethidium^+ or YO-PRO-1^2+ was determined using FlowJo.

Test [1] deals with hP2X7-mediated IL-1β release. Nature of the test: Whole blood IL-1β release assay. Type of test: cell-based. The settings on record: 30 μM compound, 6 mM ATP, LPS-primed human whole blood. As for the experimental part:
Whole blood IL-1β release assays were conducted as described. Briefly, whole human blood was mixed with an equal volume of serum-free RPMI-1640 medium containing LPS (200 ng/mL), added to a flat-bottom 96-well plate and incubated (37 °C, 95% air/5% CO2, 105 min). Compounds (30 μM) or vehicle (DMSO) were added to respective wells and incubated (37 °C, 95% air/5% CO2, 15 min). […] Plates were centrifuged (700× g, 10 min) with the resulting supernatants collected and stored at −80 °C. hIL-1β concentrations were determined using a Human IL-1β ELISA (Thermo Fisher Scientific) according to the manufacturer’s instructions. Samples above the detection limit (7500 pg/mL) were set at 7500 pg/mL for statistical analysis.

Another test concerns the target T2, mP2X7 (Mus musculus, UniProt Q9Z1M0).
T2 construct: expressed in transfected cells; host or cells: HEK293 cells, transient transfection, GFP+ cells gated
T2 sequence (Q9Z1M0 1-595): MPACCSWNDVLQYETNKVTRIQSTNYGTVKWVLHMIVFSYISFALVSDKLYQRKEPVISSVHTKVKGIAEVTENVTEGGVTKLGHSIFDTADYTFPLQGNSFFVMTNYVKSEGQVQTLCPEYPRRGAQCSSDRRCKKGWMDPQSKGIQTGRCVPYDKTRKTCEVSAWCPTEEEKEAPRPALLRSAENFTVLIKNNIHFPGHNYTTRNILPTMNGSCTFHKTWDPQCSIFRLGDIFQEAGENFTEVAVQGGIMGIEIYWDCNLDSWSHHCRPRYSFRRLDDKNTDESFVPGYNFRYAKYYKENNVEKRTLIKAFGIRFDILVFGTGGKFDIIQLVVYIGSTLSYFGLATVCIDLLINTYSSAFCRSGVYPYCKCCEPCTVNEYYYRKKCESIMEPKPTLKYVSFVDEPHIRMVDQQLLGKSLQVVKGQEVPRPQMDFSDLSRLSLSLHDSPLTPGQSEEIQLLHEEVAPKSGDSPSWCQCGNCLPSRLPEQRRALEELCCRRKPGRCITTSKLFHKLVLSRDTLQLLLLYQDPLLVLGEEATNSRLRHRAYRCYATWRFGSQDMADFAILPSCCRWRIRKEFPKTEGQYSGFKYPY
Nature of the test: ATP-induced ethidium+ uptake in transfected HEK-mP2X7 cells. The test is classed as cell-based, murine. As for the experimental part: as §1, §2

With `N=C(N)NC(=O)c1nc(-c2cc3cnccc3o2)c(N2CCCCCC2)nc1N` [6-FPHMA, 6-furopyridine-substituted 5-(N,N-hexamethylene) amiloride], the IC50 was found to be 1.28 ± 0.47 µM at cP2X7 (read-out: IC50, cP2X7-mediated dye uptake) and 23 ± 2.4 µM at mP2X7 (read-out: IC50, mP2X7-mediated dye uptake). The inhibition at 30 µM on cP2X7 (read-out: blockade of cP2X7-mediated dye uptake) came to 100%. For the same molecule, the “reduction of ATP-induced IL-1β compared to vehicle control” value in test [1] turned out to be 56 ± 15%. Besides, at mP2X7 (100 μM compound, 360 μM ATP), the “blockade of mP2X7-mediated dye uptake” value is on record as 96%. Also, the “activity against murine P2X7 relative to hP2X7 and cP2X7” value on mP2X7 (comparison of IC50 values) is on record as “ten-fold less active”.

Take `Nc1ncnc2c1ncn2[C@@H]1O[C@H](COP(=O)(O)OP(=O)(O)OP(=O)(O)O)[C@@H](O)[C@H]1O` [ATP, adenosine 5′-triphosphate]: the half-maximal effective concentration (EC50) at cP2X7 was 424 ± 67 µM; on mP2X7 (GFP+ HEK-mP2X7 cells), 364 ± 48 µM. Further, the “ATP concentration giving maximum response, ethidium+ uptake” value on cP2X7 (HEK-cP2X7 cells) and on mP2X7 (HEK-mP2X7 cells) was 2 mM throughout.
